Results taken from ChEMBL document CHEMBL6109101, “Synthesis and bioactivity of cyclic peptide GG-8-6 analogues as anti-hepatocellular carcinoma agents” (Eur J Med Chem, 2025).
The source made the active and inactive calls. The rule behind the calls is not given here.

Legend:
MHCC97H [1] = experiment: Cytotoxicity against human MHCC97H cells assessed as cell viability incubated at 12 to 48 hrs hrs by MTT assay; format: functional, cell-based; conditions: dose <= 40.0 µM, time 12-48 hrs
MHCC97H [2] = experiment: Cytotoxicity against human MHCC97H cells assessed as cell viability up to 40 uM by MTT assay; format: functional, cell-based; conditions: time 12-48 hrs
HCCLM3 [3] = experiment: Cytotoxicity against human HCCLM3 cells assessed as cell viability incubated at 12 to 48 hrs hrs by MTT assay; format: functional, cell-based; conditions: dose <= 40.0 µM, time 12-48 hrs
HCCLM3 [4] = experiment: Cytotoxicity against human HCCLM3 cells assessed as cell viability up to 40 uM by MTT assay; format: functional, cell-based; conditions: time 12-48 hrs
HCCLM3 [5] = experiment: Cytotoxicity against human HCCLM3 cells assessed as cell viability up to 40 uM measured at 12 hrs by MTT assay; format: functional, cell-based
MHCC97H [6] = experiment: Cytotoxicity against human MHCC97H cells assessed as cell viability up to 40 uM measured at 12 hrs by MTT assay; format: functional, cell-based
HCCLM3 [7] = experiment: Cytotoxicity against human HCCLM3 cells assessed as cell viability up to 40 uM measured at 24 to 48 hrs by MTT assay; format: functional, cell-based; conditions: time 24-48 hrs
MHCC97H [8] = experiment: Cytotoxicity against human MHCC97H cells assessed as cell viability up to 40 uM measured at 24 to 48 hrs by MTT assay; format: functional, cell-based; conditions: time 24-48 hrs
HCCLM3 [9] = experiment: Cytotoxicity against human HCCLM3 cells assessed as reduction in cell viability up to 40 uM measured at 48 hrs by MTT assay; format: functional, cell-based
MHCC97H [10] = experiment: Cytotoxicity against human MHCC97H cells assessed as reduction in cell viability up to 40 uM measured at 48 hrs by MTT assay; format: functional, cell-based
HCCLM3 [11] = experiment: Cytotoxicity against human HCCLM3 cells assessed as reduction in cell viability at 40 uM measured at 48 hrs by MTT assay; format: functional, cell-based
MHCC97H [12] = experiment: Cytotoxicity against human MHCC97H cells assessed as reduction in cell viability at 40 uM measured at 48 hrs by MTT assay; format: functional, cell-based
HCCLM3 [13] = experiment: Cytotoxicity against human HCCLM3 cells assessed as reduction in cell viability at 40 uM measured after 48 hrs by MTT assay; format: functional, cell-based
MHCC97H [14] = experiment: Cytotoxicity against human MHCC97H cells assessed as reduction in cell viability at 40 uM measured after 48 hrs by MTT assay; format: functional, cell-based
MHCC97H [15] = experiment: Antitumor activity against human MHCC97H cells xenografted in nude mouse assessed as increase in apoptotic cells at 5 to 10 mg/kg, po administered daily for 3 weeks by TUNEL staining based assay; format: functional, organism-based; conditions: dose 5-10 mg/kg
MHCC97H [16] = experiment: Cytotoxicity against human MHCC97H cells assessed as reduction in cell viability at 40 uM by MTT assay; format: functional, cell-based; conditions: time 48.0 hrs
HCCLM3 [17] = experiment: Cytotoxicity against human HCCLM3 cells assessed as reduction in cell viability at 40 uM by MTT assay; format: functional, cell-based; conditions: time 48.0 hrs
MHCC97H [18] = experiment: Antitumor activity against human MHCC97H cells xenografted in nude mouse assessed as increase in apoptotic cells at 15 mg/kg, po administered daily for 3 weeks by TUNEL staining based assay; format: functional, organism-based
HepG2 = experiment: Cytotoxicity against human HepG2 cells assessed as inhibition of cell proliferation incubated for 48 hrs by MTT assay; format: functional, cell-based; conditions: HepG2, 48 h
Huh-7 = experiment: Cytotoxicity against human Huh-7 cells assessed as inhibition of cell proliferation incubated for 48 hrs by MTT assay; format: functional, cell-based; conditions: Huh-7, 48 h
MHCC97H [19] = experiment: Cytotoxicity against human MHCC97H cells assessed as inhibition of cell proliferation incubated for 48 hrs by MTT assay; format: functional, cell-based
HCCLM3 [20] = experiment: Cytotoxicity against human HCCLM3 cells assessed as inhibition of cell proliferation incubated for 48 hrs by MTT assay; format: functional, cell-based; conditions: HCCLM3, 48 h
[21] = Toxicity in nude mouse implanted with human MHCC97H cells assessed as body weight at 10 mg/kg, po administered daily for 3 weeks and measured immediately (reference value: 25.05 g); format: organism-based; conditions: in vivo, 504 h
[22] = Toxicity in nude mouse implanted with human MHCC97H cells assessed as body weight at 5 mg/kg, po administered daily for 3 weeks and measured immediately (reference value: 25.05 g); format: organism-based; conditions: in vivo, 504 h
[23] = Toxicity in nude mouse implanted with human MHCC97H cells assessed as body weight at 15 mg/kg, po administered daily for 3 weeks and measured immediately (reference value: 25.05 g); format: organism-based; conditions: in vivo, 504 h
[24] = Toxicity in nude mouse implanted with human MHCC97H cells assessed as body weight at 10 mg/kg, po administered daily for 3 weeks and measured at day 22 (reference value: 26.38 g); format: organism-based; conditions: in vivo, 1032 h, time 43 day
[25] = Toxicity in nude mouse implanted with human MHCC97H cells assessed as body weight at 5 mg/kg, po administered daily for 3 weeks and measured at day 22 (reference value: 26.38 g); format: organism-based; conditions: in vivo, 1032 h, time 43 day
[26] = Toxicity in nude mouse implanted with human MHCC97H cells assessed as body weight at 15 mg/kg, po administered daily for 3 weeks and measured at day 22 (reference value: 26.38 g); format: organism-based; conditions: in vivo, 1032 h, time 43 day
[27] = Toxicity in nude mouse implanted with human MHCC97H cells assessed as heart damage at 5 to 15 mg/kg, po administered daily for 3 weeks by H and E staining based analysis; format: organism-based; conditions: in vivo, 504 h, dose 5-15 mg/kg
[28] = Toxicity in nude mouse implanted with human MHCC97H cells assessed as liver damage at 5 to 15 mg/kg, po administered daily for 3 weeks by H and E staining based analysis; format: organism-based; conditions: in vivo, 504 h, dose 5-15 mg/kg
[29] = Toxicity in nude mouse implanted with human MHCC97H cells assessed as spleen damage at 5 to 15 mg/kg, po administered daily for 3 weeks by H and E staining based analysis; format: organism-based; conditions: in vivo, 504 h, dose 5-15 mg/kg
[30] = Toxicity in nude mouse implanted with human MHCC97H cells assessed as lung damage at 5 to 15 mg/kg, po administered daily for 3 weeks by H and E staining based analysis; format: organism-based; conditions: in vivo, 504 h, dose 5-15 mg/kg
[31] = Toxicity in nude mouse implanted with human MHCC97H cells assessed as kidney damage at 5 to 15 mg/kg, po administered daily for 3 weeks by H and E staining based analysis; format: organism-based; conditions: in vivo, 504 h, dose 5-15 mg/kg

| Structure (SMILES) | Activity (MHCC97H [1]) | Activity (MHCC97H [2]) | Activity (HCCLM3 [3]) | Activity (HCCLM3 [4]) | Activity (HCCLM3 [5]) | Activity (MHCC97H [6]) | Activity (HCCLM3 [7]) | Activity (MHCC97H [8]) | Activity (HCCLM3 [9]) | Activity (MHCC97H [10]) | Activity (HCCLM3 [11]) | Activity (MHCC97H [12]) | other results |
| --- | --- | --- | --- | --- | --- | --- | --- | --- | --- | --- | --- | --- | --- |
| CC[C@@H](C)[C@H]1NC(=O)[C@@H]2CCCN2C(=O)[C@@H](CC(C)C)NC(=O)[C@H](COC(C)(C)C)NC(=O)[C@@H](CC(C)C)NC(=O)[C@H](C(C)C)NC(=O)[C@H](CC(C)C)NC(=O)[C@H](CC(C)C)NC(=O)[C@H](CC(C)C)NC1=O | Dose-dependent-effect | Time-dependent-effect | Dose-dependent-effect | Time-dependent-effect | Active | Active | Active | Active | Active | Active | Active | Active | Activity (HCCLM3 [13]): Active; Activity (MHCC97H [14]): Active; Activity (MHCC97H [15]): Active |
| CC[C@@H](C)[C@H]1NC(=O)[C@@H]2CCCN2C(=O)[C@@H](CC(C)C)NC(=O)[C@H](CO)NC(=O)[C@@H](CC(C)C)NC(=O)[C@H](C(C)C)NC(=O)[C@H](CC(C)C)NC(=O)[C@H](CC(C)C)NC(=O)[C@H](CC(C)C)NC1=O | Dose-dependent-effect | Time-dependent-effect | Dose-dependent-effect | Time-dependent-effect | Active | Active | Active | Active | Active | Active | Active | Active | Activity (MHCC97H [16]): Time-dependent-effect; Activity (HCCLM3 [17]): Time-dependent-effect; Activity (MHCC97H [18]): Active |
| CC[C@H](C)[C@@H]1NC(=O)[C@@H]2CCCN2C(=O)[C@H](CC(C)C)NC(=O)[C@H](CO)NC(=O)[C@H](CC(C)C)NC(=O)[C@H](C(C)C)NC(=O)[C@H](CC(C)C)NC(=O)[C@H](CC(C)C)NC(=O)[C@H](CC(C)C)NC1=O | – | – | – | – | – | – | – | – | – | – | – | – | IC50 (HepG2): > 100 µM; IC50 (Huh-7): > 100 µM; IC50 (MHCC97H [19]): 33.3 µM; IC50 (HCCLM3 [20]): 35.7 µM; Activity [21]: 25 g; Activity [22]: 25.43 g; Activity [23]: 24.9 g; Activity [24]: 26.3 g; Activity [25]: 26.38 g; Activity [26]: 26.3 g; Activity [27]: Non-toxic; Activity [28]: Non-toxic; Activity [29]: Non-toxic; Activity [30]: Non-toxic; Activity [31]: Non-toxic |
